Source: PubChem BioAssay (NCI)
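The compound was tested at five concentrations on cells cultured in 96-well plates, with a 48-hour exposure period. At the GI50, growth is halved. TGI marks complete inhibition of growth.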

Experiments:
Assay in all cases: NCI-60 cell line screen, 48 h
[1] = test system: HCC-2998 colon
[2] = test system: K-562 leukemia
[3] = test system: NCI-H23 lung
[4] = test system: OVCAR-3 ovarian
[5] = test system: OVCAR-8 ovarian
[6] = test system: RPMI-8226 leukemia
[7] = test system: SF-268 CNS
[8] = test system: SF-295 CNS
[9] = test system: SF-539 CNS
[10] = test system: SK-MEL-28 melanoma

Question: Which results are given for C#C[C@]1(O)[C@@H](CO)O[C@@H](n2ccc(N)nc2=O)[C@@H]1O?
Answer: TGI [1]: 0.196 µM; TGI [2]: > 100 µM; TGI [3]: 1.78 µM; TGI [4]: > 20.8 µM; TGI [5]: > 100 µM; TGI [6]: 0.192 µM; TGI [7]: 6.04 µM; TGI [8]: 3.07 µM; TGI [9]: 13.5 µM; TGI [10]: 4.27 µM

Question: Which TGI [1] does the source give for CN1C(=O)CN2C(Cl)(Cl)C2(c2ccccc2)c2cc(Cl)ccc21 (stereo not given) here?
Answer: > 100 µM

Question: And the TGI [2]?
Answer: > 100 µM

Question: And the TGI [3]?
Answer: > 100 µM

Question: What about the TGI [4] of the same molecule?
Answer: > 100 µM

Question: And the TGI [5]?
Answer: > 100 µM

Question: What about the TGI [6] of the same molecule?
Answer: > 100 µM

Question: What about the TGI [7] of the same molecule?
Answer: > 100 µM

Question: What about the TGI [8] of the same molecule?
Answer: > 100 µM

Question: And the TGI [10]?
Answer: > 100 µM

Question: How did the TGI [1] turn out when Cc1cc(C)c(NC(=O)/C=C/c2ccccc2)c(C)c1 was run?
Answer: > 100 µM

Question: And the TGI [2]?
Answer: > 100 µM

Question: What about the TGI [3] of the same molecule?
Answer: > 100 µM

Question: And the TGI [4]?
Answer: > 100 µM

Question: What about the TGI [5] of the same molecule?
Answer: > 100 µM

Question: And the TGI [6]?
Answer: > 100 µM

Question: What about the TGI [7] of the same molecule?
Answer: > 100 µM

Question: What about the TGI [8] of the same molecule?
Answer: > 100 µM

Question: What about the TGI [9] of the same molecule?
Answer: > 100 µM

Question: And the TGI [10]?
Answer: > 100 µM

Question: Which TGI [2] does the source give for CC(=O)N=c1ccc2nc(N)nn(O)c-2c1 here?
Answer: > 100 µM

Question: What about the TGI [3] of the same molecule?
Answer: > 100 µM

Question: And the TGI [4]?
Answer: > 100 µM

Question: And the TGI [5]?
Answer: > 100 µM

Question: What about the TGI [6] of the same molecule?
Answer: > 100 µM

Question: What about the TGI [7] of the same molecule?
Answer: > 100 µM

Question: What about the TGI [8] of the same molecule?
Answer: > 100 µM

Question: What about the TGI [9] of the same molecule?
Answer: > 100 µM

Question: What about the TGI [10] of the same molecule?
Answer: > 100 µM

Question: Which results are given for COc1cc2c(cc1O)Cc1c-2[n+](C)cc2cc(OC)c(OC)cc12?
Answer: TGI [1]: > 100 µM; TGI [2]: > 100 µM; TGI [3]: > 100 µM; TGI [4]: > 100 µM; TGI [5]: > 100 µM; TGI [6]: > 100 µM; TGI [7]: > 100 µM; TGI [8]: > 100 µM; TGI [9]: 7.46 µM; TGI [10]: > 100 µM

Question: Which results are given for COc1cc(/C=C/C(=O)c2ccc(F)cc2)ccc1OCCCCCOc1cc2c(cc1OC)C(=O)N1CCCC1C=N2 (stereo not given)?
Answer: GI50 [1]: < 0.0174 µM; TGI [1]: 0.0382 µM; GI50 [2]: 0.0306 µM; GI50 [3]: 0.0186 µM; TGI [3]: 0.0662 µM; GI50 [5]: 0.0253 µM; TGI [5]: 3.28 µM; GI50 [6]: 0.0101 µM; TGI [6]: 0.0383 µM; GI50 [7]: 0.0177 µM; TGI [7]: 0.0613 µM; GI50 [8]: < 0.01 µM; TGI [8]: < 0.0108 µM; GI50 [9]: < 0.0166 µM; TGI [9]: 0.0301 µM; GI50 [10]: 0.194 µM; TGI [10]: 0.473 µM

Question: With NC(Cc1ccccc1)c1nn[nH]n1 (stereo not given) as the molecule, how does the TGI [2] read?
Answer: > 100 µM

Question: What about the TGI [3] of the same molecule?
Answer: > 100 µM

Question: What about the TGI [4] of the same molecule?
Answer: > 100 µM

Question: What about the TGI [5] of the same molecule?
Answer: > 100 µM

Question: And the TGI [6]?
Answer: > 100 µM

Question: What about the TGI [7] of the same molecule?
Answer: > 100 µM

Question: What about the TGI [8] of the same molecule?
Answer: > 100 µM

Question: What about the TGI [9] of the same molecule?
Answer: > 100 µM

Question: And the TGI [10]?
Answer: > 100 µM

Question: What does the source list for O=[N+]([O-])c1ccc(CN=C2NNS(=O)(=O)c3ccccc32)cc1?
Answer: TGI [1]: > 100 µM; TGI [2]: > 100 µM; TGI [4]: > 100 µM; TGI [5]: > 100 µM; TGI [6]: > 100 µM; TGI [7]: > 100 µM; TGI [8]: > 100 µM; TGI [9]: > 100 µM

Question: How did the TGI [1] turn out when C/C(=N\O)C1CC2C=C(C#N)C1N(Cc1ccccc1)C2 (stereo not given) was run?
Answer: > 100 µM

Question: What about the TGI [2] of the same molecule?
Answer: > 100 µM

Question: What about the TGI [3] of the same molecule?
Answer: > 100 µM

Question: And the TGI [4]?
Answer: > 100 µM

Question: And the TGI [5]?
Answer: > 100 µM

Question: And the TGI [6]?
Answer: > 100 µM

Question: What about the TGI [7] of the same molecule?
Answer: > 100 µM

Question: And the TGI [8]?
Answer: > 100 µM

Question: What about the TGI [9] of the same molecule?
Answer: > 100 µM

Question: And the TGI [10]?
Answer: > 100 µM

Question: Which results are given for CC(C)OC(=O)NNc1cccc(Cl)c1?
Answer: TGI [1]: > 100 µM; TGI [2]: > 100 µM; TGI [3]: > 100 µM; TGI [4]: > 100 µM; TGI [5]: > 100 µM; TGI [6]: > 100 µM; TGI [7]: > 100 µM; TGI [8]: > 100 µM; TGI [9]: > 100 µM; TGI [10]: > 100 µM

Question: With C=CC(=O)NCNC(=O)C=C as the molecule, how does the TGI [1] read?
Answer: > 100 µM

Question: What about the TGI [2] of the same molecule?
Answer: > 100 µM

Question: What about the TGI [3] of the same molecule?
Answer: > 100 µM

Question: What about the TGI [4] of the same molecule?
Answer: > 100 µM

Question: And the TGI [5]?
Answer: > 100 µM

Question: And the TGI [6]?
Answer: > 100 µM

Question: And the TGI [7]?
Answer: > 100 µM

Question: What about the TGI [8] of the same molecule?
Answer: > 100 µM

Question: And the TGI [9]?
Answer: > 100 µM

Question: And the TGI [10]?
Answer: > 100 µM

Question: Which results are given for OCC1OC(n2cnc3c(SCc4ccccc4)ncnc32)C(O)C1O (stereo not given)?
Answer: TGI [1]: > 100 µM; TGI [2]: > 100 µM; TGI [3]: > 100 µM; TGI [4]: > 100 µM; TGI [5]: 37.4 µM; TGI [6]: > 100 µM; TGI [7]: > 100 µM; TGI [8]: > 100 µM; TGI [9]: > 100 µM; TGI [10]: > 100 µM

Question: With [N-]=[N+]=CC(=O)OCC1NC(=O)C(COC(=O)C=[N+]=[N-])NC1=O (stereo not given) as the molecule, how does the TGI [1] read?
Answer: > 100 µM

Question: What about the TGI [2] of the same molecule?
Answer: > 100 µM

Question: What about the TGI [3] of the same molecule?
Answer: > 100 µM

Question: And the TGI [4]?
Answer: > 100 µM

Question: And the TGI [5]?
Answer: > 100 µM

Question: What about the TGI [6] of the same molecule?
Answer: > 100 µM

Question: And the TGI [7]?
Answer: > 100 µM

Question: What about the TGI [8] of the same molecule?
Answer: > 100 µM

Question: And the TGI [9]?
Answer: > 100 µM

Question: And the TGI [10]?
Answer: > 100 µM

Question: Which results are given for CCP(=O)(CC)C(Cl)(Cl)C(O)C(Cl)(Cl)Cl (stereo not given)?
Answer: TGI [1]: > 100 µM; TGI [2]: > 100 µM; TGI [3]: > 100 µM; TGI [4]: > 100 µM; TGI [5]: > 100 µM; TGI [6]: > 100 µM; TGI [8]: > 100 µM; TGI [10]: > 100 µM
